Patent publication US9493430B2, “Biaryl- or heterocyclic biaryl-substituted cyclohexene derivative compounds as CETP inhibitors” (CHONG KUN DANG PHARMACEUTICAL CORP., priority 2013, dated 2016)
One block for each compound: values may come before it.

Columns and labels:
patients [1] = conditions: patients administered with Anacetrapib; cited from earlier work
CETP = CETP (Homo sapiens (Human), UniProt P11597); experiment: Test for inhibition of cholesteryl ester transfer (in vitro); format: biochemical; conditions: human plasma as CETP source, LDL from healthy persons as acceptor, rHDL-agarose donor, 37° C.
Chain of CETP (P11597 18-493): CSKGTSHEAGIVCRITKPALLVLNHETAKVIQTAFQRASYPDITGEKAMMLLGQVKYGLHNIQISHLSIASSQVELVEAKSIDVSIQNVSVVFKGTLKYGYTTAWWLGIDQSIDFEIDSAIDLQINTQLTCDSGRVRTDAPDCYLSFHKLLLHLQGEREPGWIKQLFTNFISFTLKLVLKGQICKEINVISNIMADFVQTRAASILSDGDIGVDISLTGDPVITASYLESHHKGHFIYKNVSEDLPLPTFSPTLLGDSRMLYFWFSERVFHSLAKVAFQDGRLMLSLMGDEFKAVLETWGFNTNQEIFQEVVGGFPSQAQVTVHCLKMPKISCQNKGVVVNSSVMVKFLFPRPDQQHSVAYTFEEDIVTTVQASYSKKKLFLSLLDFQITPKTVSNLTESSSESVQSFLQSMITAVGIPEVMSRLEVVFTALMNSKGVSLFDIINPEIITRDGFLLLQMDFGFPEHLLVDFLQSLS
Excerpt: Test for Inhibition of Cholesteryl Ester Transfer (In Vitro)
1. Construction of Cholesteryl Ester Donor
To construct a cholesteryl ester donor to be used in the test, radiolabeled recombinant HDL containing […] (GE healthcare, TRK886, 3.5 μCi/mg of apoA-1) and apoA-1 was synthesized. Then, rHDL-agarose having the recombinant HDL immobilized thereon by CNBr-activated Sepharose 4B (Amersham Biosciences, Sweden) resin was used in the test.
2. Cholesteryl Ester Transfer Test
As a protein source for cholesteryl ester transfer, plasma from healthy persons was used, and as a cholesteryl ester receptor, LDL from healthy persons was used. Samples were treated with each test compound to final concentrations of 16, 80, 400, 2000 and 10000 nM and analyzed in duplicate. For the cholesteryl ester transfer test, 20 μl of plasma, 50 μl of LDL (0.25 mg/ml) and 50 μl of rHDL-agarose (0.25 mg/ml) were added, and a solution containing a test compound was added, followed by reaction at 37° C. Then, centrifugation was performed at 4° C. for 3 minutes to stop the reaction, and 150 μl of the supernatant was taken and transferred to a 96-well plate for radioactivity measurement, and the radioactivity of the plate was measured with a beta-ray detector.
(§1) 3. Statistical Processing
The ratio of [^3H]-cholesteryl oleate from HDL to LDL was calculated and used as a result value, and from the result value, IC50 value was calculated using GraphPad Prism 5.0.

golden Syrian hamsters = experiment: Test for anti-hyperlipidemic effect in hamsters (in vivo); conditions: Mesocricetus auratus, po, 3 mg/kg orally for 5 days, blood 4 hours after final administration, vs control; for inhibition in vivo at 3 mg/kg: read-out: Decrease in LDL-c (%); for change in vivo at 3 mg/kg: read-out: Increase in HDL-c (%)
Excerpt: Test for Anti-Hyperlipidemic Effect in Hamsters (In Vivo)
In this test, 8-week-old male golden Syrian hamsters were used. The breeding room was maintained at constant temperature and constant humidity and a 12-hr light/12-hr dark cycle. The animals were allowed access to feed and water ad libitum.
2. Anti-Hyperlipidemic Test in Hamsters
The test animals were acclimated for 1 week before use in the test. The test animals were divided according to body weight into several groups, each consisting of 5-8 animals, and were then administered orally with a dose of 3 mg/kg. A solvent control and a CETP inhibitor were dissolved in imwitor 742: tween 80 (1:1) and administered orally for 5 days, and at 4 hours after the final administration, blood was collected from the heart. The collected blood was centrifuged at 3000 rpm for 15 minutes, and the separated serum was measured for HDL-Cholesterol (Biosystem) and LDL-Cholesterol (Biosystem) using a biochemical analysis instrument (ILab 300 plus, Instrumentation Laboratory).
as §1
(§2) All test results were expressed as Mean±SEM, and to evaluate the effect of each test group, each test group was compared with the control group using one-way ANOVA test (Dunnett's test, p<0.001).

patients [2] = conditions: human, in vivo; cited from earlier work
patients [3] = conditions: human, in vivo; cited from earlier work; remark: listed apart in the source
[4] = tested on: H295R cell line (human adrenal cortical tumor cells); format: cell-based; conditions: 24 hours, 100 nM of torcetrapib, 1 μM of test compounds
Protocol: Evaluation of the Ability of CETP Inhibitor to Secrete Blood Pressure-Hormone
Based on this, the secretion of blood pressure-increasing hormones from human adrenal cortical tumor cells was evaluated. The cell line H295R was purchased from ATCC (CRL-2128) and cultured in DMEM/F-12 medium (1% ITS, 2.5% Nu-serum). The H295R cell line was dispensed into a 24-well plate at a cell density of 1×10^5/well, and stabilized for 24 hours, after which the cells were starved for 24 hours using serum-free DMEM/F-12. Then, the cells were treated with each of 100 nM of torcetrapib and 1 μM of test compounds 554, 557, 574, 584, 586, 593, 618, 643, 650, 661, 681 and 695. At 24 hours after treatment with the drug or the compound, the supernatant was taken and stored at −20° C. The supernatant stored at −20° C. was thawed, and the amounts of aldosterone and cortisol secreted from the cells were measured using an aldosterone EIA kit (Cayman-10004377) and cortisol EIA kit (Cayman-500360).
2. Statistical Processing
as §2

patients [5] = conditions: cited from earlier work
[6] = tested on: human adrenal cortical tumor cells; conditions: cited from earlier work

Compound: COc1cc(F)c(C(C)C)cc1-c1ccc(C(F)(F)F)cc1CN1C(=O)O[C@H](c2cc(C(F)(F)F)cc(C(F)(F)F)c2)[C@@H]1C [Anacetrapib]
HDL-c level increase (patients [1]): 138%
LDL-c level decrease (patients [1]): 40%

IC50 (CETP): 6.6 nM
Compound: Cc1cc(C(=O)O)ccc1-c1cc(C2=C(CN3C(=O)O[C@H](c4cc(C(F)(F)F)cc(C(F)(F)F)c4)[C@@H]3C)CC(C)(C)CC2)ccc1F [Compound 681, 5′-(2-(((4S,5R)-5-(3,5-bis(trifluoromethyl)phenyl)-4-methyl-2-oxooxazolidin-3-yl)methyl)-4,4-dimethylcyclohex-1-enyl)-2′-fluoro-2-methylbiphenyl-4-carboxylic acid]
inhibition in vivo at 3 mg/kg (golden Syrian hamsters): 29%
change in vivo at 3 mg/kg (golden Syrian hamsters): 25%

IC50 (CETP): 6.4 nM
Compound: C[C@H]1[C@@H](c2cc(C(F)(F)F)cc(C(F)(F)F)c2)OC(=O)N1CC1=C(c2cc(-c3ccc(C(=O)O)cc3C(F)(F)F)ccc2F)CCC(C)(C)C1 [Compound 695, 3′-(2-(((4S,5R)-5-(3,5-bis(trifluoromethyl)phenyl)-4-methyl-2-oxooxazolidin-3-yl)methyl)-4,4-dimethylcyclohex-1-enyl)-4′-fluoro-2-(trifluoromethyl)biphenyl-4-carboxylic acid]
inhibition in vivo at 3 mg/kg (golden Syrian hamsters): 35%
change in vivo at 3 mg/kg (golden Syrian hamsters): 71%

Compound: CCC(CC)CC1(C(=O)Nc2ccccc2SC(=O)C(C)C)CCCCC1 [Dalcetrapib]
effects (efficacy) (patients [2]): insufficient effects
side effects (patients [2]): does not have the side effects of Torcetrapib

Compound: Cc1cc(C)c2c(c1)[C@@H](N(Cc1cc(C(F)(F)F)cc(C(F)(F)F)c1)c1nnn(C)n1)CCCN2C[C@H]1CC[C@H](C(=O)O)CC1 [Evacetrapib]
HDL-c levels (patients [3]): increases HDL-c levels in a dose-dependent manner
side effects such as blood pressure elevation (patients [3]): does not cause side effects such blood pressure elevation

Compound: CCOC(=O)N1c2ccc(C(F)(F)F)cc2[C@@H](N(Cc2cc(C(F)(F)F)cc(C(F)(F)F)c2)C(=O)OC)C[C@H]1CC [torcetrapib]
secretion of aldosterone [4]: increased the secretion of the two hormones
secretion of cortisol [4]: increased the secretion of the two hormones
morbidity rate and mortality rate (patients [5]; combination of torcetrapib and atorvastatin compared to atorvastatin alone): increase
blood pressure (patients [5]; human, in vivo): causes an increase in blood pressure
mortality rate (patients [5]; human, in vivo): an increase in mortality rate
secretion of aldosterone [6]: increased the secretion of aldosterone and cortisol
secretion of cortisol [6]: increased the secretion of aldosterone and cortisol
